{"source": "patent EP0519427A2", "about": "“N-substituted-3-iodopropiolamide, production and use thereof” (priority 1991, dated 1992)", "type_in_all_cases": "cell-based", "key": {"[1]": {"tested_on": "Coriolus versicolor(L. ex Fr.) Quélet, FFPRI 1030", "assay": "Preserving activity for wood preservatives (weight loss of treated wood)", "conditions": "beech sapwood specimens, 110 ± 10 g/m² preservative applied (0.5% xylene solution per table note), eight weeks at 26 ± 2 °C; lower = higher preserving activity", "procedure": "(§1) This test was conducted according to Specification No.1 of Japan Wood Preserving Association, enacted in 1979, amended in 1989 and titled \"Test methods of preserving activity for wood preservatives used in the coating, spraying and dipping treatment\".\n(§2) • ① Tyromyces palustris (Ber. et Curt.) Murr., FFPRI 0507 --\"Ouzuratake\" • ② Coriolus versicolor(L. ex Fr.) Quélet, FFPRI 1030 --\"Kawaratake\"\n(§3) These two fungi are classified as wood rot fungi.\n(§4) Culture media comprised culture jars (cylindrical jars of bottom diameter 8-9 cm, opening diameter 6-7 cm and height 15-18 cm), in which quartz sand of 250 g (the size of which corresponds to 20-30 mesh) was put first, and then the solution of 70 ml containing 2.0 % malt extracts and 1.0 % peptone was introduced, over which chips of the beech or other broadleaf tree were spread at about 2 mm thickness, and then sterilized at 120 °C for 30 minutes in the wet heated sterilizer.\n(§5) Fungi were cultured at 26 ± 2 °C with shaking using the culture solution of 2.0 % malt extracts and 1.0 % peptone. After sufficient breeding was obtained, the fungi solution of about 3 ml was spread all over the culture medium, and then the fungi were cultured at 26 ± 2 °C with the relative humidity of over 70 %. After 10-15 days when the fungi layer sufficiently covered the culture medium, the fungi were served for the tests.\n(§6) Wood specimens were the sapwood of intact cedar and beech, the dimension of which was 5 mm thick, 20 mm wide and 40 mm long. The grain face was of 20 mm width and 40 mm length. The side faces were treated with cold-setting epoxy resin.\n(§7) The antimicrobial operation was performed with specifying types of fungi for corresponding type of trees. The combinations were as follows: Cedar----Tyromyces palustris (\"Ouzuratake\") Beech----Coriolus versicolor (\"Kawaratake\")\n(§8) The test specimens were of two types, treated and untreated specimens, respectively.\n(§9) The treated specimens referred to the wood specimens coated by brushing, spraying or dipping with wood preservatives. The amount of applied preservatives was 110 ± 10 g/m².\n(§10) The amount of applied preservatives for each test specimen was calculated by the following equation:\n(§11) The amount of applied preservatives (g/m²)=(W₁-W₂)/A wherein W₁ : weight of the test specimen after absorption(g), W₂ : weight of the test specimen before absorption(g) and A: surface area of test specimen except both butt surfaces (m²)\n(§12) 2-7-1 The test specimens prepared in the previous section were dried at 60 ± 2 °C with a recirculating dryer for 48 hours, and were allowed to stand in a desiccator for about 30 minutes, and then the weight (W₃) was measured to an accuracy of 0.01 g.\n(§13) 2-7-2 Three of each treated and untreated specimens were assembled in the Teflon casing. After sterilizing, the two assemblies were put on their 40 × 5 mm face on the fungi layer in the separate jar. They were kept at 26 ± 2 °C under the relative humidity of over 70 % for eight weeks.\n(§14) 2-7-3 After the eight weeks had elapsed, the test specimens were taken out, and mycelia and other attachments of them were removed neatly. After air-drying for 24 hours, the test specimens were dried at 60 ± 2 °C in a recirculating dryer for 48 hours, and were allowed to stand in a desiccator for about 30 minutes, and then the weight (W₄) was measured to an accuracy of 0.01 g.\n(§15) The test results were presented by the ratio of average weight loss of test specimens due to antimicrobial operation. The standard deviation and coefficient of variation were also determined. The ratio of weight loss for each test specimen was calculated by the following equation, and its average was also determined: The ratio of weight loss(%) = (W₃ - W₄) / W₃ × 100 [formula] . Lower value of the ratio of weight loss corresponds to higher wood preserving activity. […]"}, "[2]": {"tested_on": "Tyromyces palustris (Ber. et Curt.) Murr., FFPRI 0507", "assay": "Preserving activity for wood preservatives (weight loss of treated wood)", "conditions": "cedar sapwood specimens, 110 ± 10 g/m² preservative applied (0.5% xylene solution per table note), eight weeks at 26 ± 2 °C; lower = higher preserving activity", "procedure": "as §1, §2, §3, §4, §5, §6, §7, §8, §9, §10, §11, §12, §13, §14, §15"}, "[3]": {"tested_on": "Aspergillus Niger (IFO 6341), Penicillium funiculosum (IFO 6345), Rhizopus javanicus (IFO 6354), Aureobasidium pullulans (IFO 6353), Gliocladium virens (IFO …)", "assay": "Fungicide activity for wood fungicide, sum of average ratings and damage value over the five fungi", "procedure": "(§16) This test was conducted according to Specification No.2 of Japan Wood Preserving Association, enacted in 1979 and titled \"Test methods of fungicide activity for wood fungicide\".\n(§17) • ① Aspergillus niger van Tieghem IFO 6341 = ATCC 6275 • ② Penicillium funiculosum Thom (formerly : Penicillium luteum Zukal) IFO 6345 = ATCC 9644 • ③ Rhizopus javanicus Takeda (formerly : Rhizopus nigricans Ehrenberg S.N. 32) IFO 6354 • ④ Aureobasidium pullulans (de Bary) Arnaud IFO 6353 = IAM (H. Iizuka, F-24) • ⑤ Gliocladium virens Miller, Gidden & Fosteb IFO 6355 = ATCC 9645 (formerly : Trichoderma viride, T.I.)\n(§18) The fungi ① , ② , ③ and ⑤ are classified as fungi imperfecti, and the fungus ④ as blue stain fungus.\n(§19) The Culture medium comprised the potato-sap agar culture medium (specified in the Japan Industrial Standard (JIS) Z 2911- 1960) of 50 ml, put in the conical flask of 100 ml, sterilized by steam at 1.4-1.6 kgf/cm² .G (137.2-156.8 KPa) for 30 minutes.\n(§20) The fungi to be used were inoculated into the culture medium specified in the previous section and were cultured at 26 ± 2 °C under the relative humidity of 70-80 % for two weeks.\n(§21) The potato sap of 50 ml, sterilized, cooled to room temperature and to which dioctyl sodium sulfosuccinate, a wetting agent, was added so as to become 0.005 %, was dropped to the fully breeding fungi layer, and was agitated with a platinum spatula in such a way that the spore was torn off. The resulting liquid filtered by sterilized gauze was the spore suspension.\n(§22) 3-5-1 A Petri dish measured 90-100 mm in diameter and 20 mm in height.\n(§23) 3-5-2 Agar liquid (which has no nutrients) of 2 % sterilized by steam was dropped onto the Petri dish sterilized by dry heat, and then was solidified.\n(§24) 3-5-3 Three mm diameter sterilized glass bars or plastic nets made of polypropylene, etc. were placed to prevent the test specimens from touching with agar directly.\n(§25) 3-6-1 The type of trees for wood specimens was beech. The cross section was of grain face, and the dimension was 20 mm wide 3 mm thick and 50 mm long.\n(§26) 3-6-2 Wood specimens were supplied with nutrients in such a way that they were dipped into the potato-sap (the one in the section 3-2, but agar was not added) for 3 minutes.\n(§27) 3-6-3 Nutrient-supplied wood specimens, after drying at 60 °C, were used for testing immediately. They were temporarily stored at 0 °C, but they were served to tests as soon as possible.\n(§28) The test specimens were of two types, treated and untreated speciments. The treated specimens referred to the one treated with fungicide. The untreated specimens were of two types, the one really untreated and the other treated with solvent only.\n(§29) 3-7-2-1 Nutrients-supplied wood specimens were dried at 60 ± 2 °C, and then their weights (W₀) were measured. Test specimens of 10-20 pieces were piled up in a one liter beaker in such a way that two specimens constant space apart from each other were alternately put on the other two specimens also constant space apart from each other. On the top of the two specimens, a weight was placed. Through the test specimens thus arranged, the fungicide solution was introduced. The level of the fungicide solution was one centimeter above the top specimens. The test specimens were dipped for three minutes after the fungicide solution introduction.\n(§30) After finishing dipping, the test specimens were wiped softly, and then the weights (W₁) were measured immediately. As control experiment, the same procedure as the above was done using solvent without fungicide.\n(§31) 3-7-2-2 The amounts of solution pick-up and fungicide pick-up were calculated with the following equations: The amount of solution absorption: RL = W₁ - W₀ [formula] The amount of fungicide absorption: Rc = RL × fungicide concentration [formula] 3-7-2-3 Wood specimens treated were placed without contacting each other, then were air-dried for two days, and then served as the treated test specimens. […]"}, "[4]": {"tested_on": "Aureobasidium pullulans (de Bary) Arnaud IFO 6353", "assay": "Fungicide activity for wood fungicide (rating of fungi growth on treated wood)", "conditions": "beech specimens dipped 3 min in fungicide solution, 4 weeks culture; rating 0 (no growth) to 3; mean of 6 specimens", "procedure": "as §16, §17, §18, §19, §20, §21, §22, §23, §24, §25, §26, §27, §28, §29, §30, §31"}, "[5]": {"tested_on": "Rhizopus javanicus Takeda IFO 6354", "assay": "Fungicide activity for wood fungicide (rating of fungi growth on treated wood)", "conditions": "beech specimens dipped 3 min in fungicide solution, 4 weeks culture; rating 0 (no growth) to 3; mean of 6 specimens", "procedure": "as §16, §17, §18, §19, §20, §21, §22, §23, §24, §25, §26, §27, §28, §29, §30, §31"}, "[6]": {"tested_on": "Gliocladium virens Miller, Gidden & Fosteb IFO 6355", "assay": "Fungicide activity for wood fungicide (rating of fungi growth on treated wood)", "conditions": "beech specimens dipped 3 min in fungicide solution, 4 weeks culture; rating 0 (no growth) to 3; mean of 6 specimens", "procedure": "as §16, §17, §18, §19, §20, §21, §22, §23, §24, §25, §26, §27, §28, §29, §30, §31"}, "[7]": {"tested_on": "Aspergillus niger van Tieghem IFO 6341", "assay": "Fungicide activity for wood fungicide (rating of fungi growth on treated wood)", "conditions": "beech specimens dipped 3 min in fungicide solution, 4 weeks culture; rating 0 (no growth) to 3; mean of 6 specimens", "procedure": "as §16, §17, §18, §19, §20, §21, §22, §23, §24, §25, §26, §27, §28, §29, §30, §31"}, "[8]": {"tested_on": "Penicillium funiculosum Thom IFO 6345", "assay": "Fungicide activity for wood fungicide (rating of fungi growth on treated wood)", "conditions": "beech specimens dipped 3 min in fungicide solution, 4 weeks culture; rating 0 (no growth) to 3; mean of 6 specimens", "procedure": "as §16, §17, §18, §19, §20, §21, §22, §23, §24, §25, §26, §27, §28, §29, §30, §31"}}, "data": [{"smiles": "CCCCNC(=O)OCC#CI", "note": "[R, I-C≡CCH₂O-CO-NH(CH₂)₃CH₃, reference compound]", "values": [{"measurement": "Ratio of weight loss (%), C. versicolor", "setting": "[1]", "value": 6.4, "unit": "%"}, {"measurement": "Ratio of weight loss (%), T. palustris", "setting": "[2]", "value": 1.3, "unit": "%"}, {"measurement": "damage value", "setting": "[3]; D = S₁ / S₀ × 100, untreated 100.0, lower = higher fungicide activity", "value": 13.3}, {"measurement": "Sum (of average rating values A₁ to A₅)", "setting": "[3]; S = A₁ + A₂ + A₃ + A₄ + A₅, untreated 15.0", "value": 2.0}, {"measurement": "Average rating value, A₄ : Aureobasidium pullulans (IFO 6353)", "setting": "[4]", "value": 0.0}, {"measurement": "Average rating value, A₃ : Rhizopus javanicus (IFO 6354)", "setting": "[5]", "value": 2.0}, {"measurement": "Average rating value, A₅ : Gliocladium virens (IFO 6355)", "setting": "[6]", "value": 0.0}, {"measurement": "Average rating value, A₁ : Aspergillus Niger (IFO 6341)", "setting": "[7]", "value": 0.0}, {"measurement": "Average rating value, A₂ : Penicillium funiculosum (IFO 6345)", "setting": "[8]", "value": 0.0}]}]}
